Each compound was assayed on cellular pERK in PC-9 cells (EGFR Ex19Del) (assay: Potency assay: pERK (AlphaLISA SureFire Ultra p-ERK1/2) in PC-9 cells). Details: Homo sapiens, PC-9, 1 h, PC-9 cells (EGFR Ex19Del), 1 hour incubation, AlphaLISA SureFire Ultra p-ERK1/2; read-out: SOS1 pERK IC50.
Format: cell-based

Q: COC1(c2cc3c(N[C@H](C)c4cccc(C(F)F)c4F)ncnc3n(C)c2=O)CCC2(CC1)CS(=O)(=O)C2 [Example 32-4] was tested. Which IC50 did it give?
A: Its IC50 is 0.00929 µM.

Q: With COC1(c2cc3c(N[C@H](C)c4nccc(C(F)F)c4F)ncnc3n(C)c2=O)CCN(C(C)=O)CC1 [Example 62, 6-(1-acetyl-4-methoxy-4-piperidyl)-4-[[(1R)-1-[4-(difluoromethyl)-3-fluoro-2-pyridyl]ethyl]amino]-8-methyl-pyrido[2,3-d]pyrimidin-7-one] as the compound, how does the IC50 read?
A: Its IC50 is 0.262 µM.

Q: With COC1(c2cc3c(N[C@H](C)c4cccc(C(F)F)c4F)ncnc3n(C)c2=O)CCP(C)(=O)CC1 (some centres unmarked) [Example 32-45] as the compound, how does the IC50 read?
A: Its IC50 is 0.249 µM.

Q: Which IC50 does the source give for C[C@@H](Nc1ncnc2c1cc(C1(F)CCC3(CC1)CS(=O)(=O)C3)c(=O)n2C)c1cccc(C(F)F)c1F [Example 29-7] here?
A: The IC50 was 0.0811 µM.

Q: For C[C@@H](Nc1ncnc2c1cc(C1CC[S+]([O-])CC1)c(=O)n2C)c1cccc(C(F)F)c1F (stereo partly drawn) [Example 25, (R)-4-((1-(3-(difluoromethyl)-2-fluorophenyl)ethyl)amino)-8-methyl-6-(1-oxidotetrahydro-2H-thiopyran-4-yl)pyrido[2,3-d]pyrimidin-7(8H)-one], which IC50 is on record?
A: The IC50 was 0.122 µM.

Q: With C[C@@H](Nc1ncnc2c1cc(C(=O)N1CC3CCC(C1)O3)c(=O)n2C)c1cccc(C(F)F)c1F [Example 26-19] as the compound, how does the IC50 read?
A: Its IC50 is 0.295 µM.

Q: With C[C@@H](Nc1ncnc2c1cc(C1(F)CC3(C1)CS(=O)(=O)C3)c(=O)n2C)c1cccc(C(F)F)c1F [Example 29-8] as the compound, how does the IC50 read?
A: The IC50 was 0.0534 µM.

Q: Which IC50 does the source give for COCC1COCCN1C(=O)c1cc2c(N[C@H](C)c3cccc(C(F)F)c3F)ncnc2n(C)c1=O (some centres unmarked) [Example 26-37] here?
A: Its IC50 is 0.747 µM.

Q: With C[C@@H](Nc1ncnc2c1cc(C(=O)N1CCCC13CCOCC3)c(=O)n2C)c1cccc(C(F)F)c1F [Example 26-42] as the compound, how does the IC50 read?
A: Its IC50 is 0.194 µM.

Q: With COC1(c2cc3c(N[C@H](C)c4cccc(C(F)F)c4F)ncnc3n(C)c2=O)CCNC1 (some centres unmarked) [Example 32-55] as the compound, how does the IC50 read?
A: Its IC50 is 0.0816 µM.

Q: With C[C@@H](Nc1ncnc2c1cc(C1=CCCNC1)c(=O)n2C)c1cccc(C(F)F)c1F [Example 1-4] as the compound, how does the IC50 read?
A: The IC50 was 0.0431 µM.

Q: C[C@@H](Nc1ncnc2c1cc(C(=O)N1CC3CCC1CO3)c(=O)n2C)c1cccc(C(F)F)c1F (some centres unmarked) [Example 26-18] was tested. Which IC50 did it give?
A: The IC50 was 0.589 µM.

Q: With C[C@@H](Nc1ncnc2c1cc(C1(F)CN(C)C1)c(=O)n2C)c1cccc(C(F)F)c1F [Example 29-1] as the compound, how does the IC50 read?
A: The IC50 was 0.122 µM.

Q: With CC(=O)N1CC2(CCN2C(=O)c2cc3c(N[C@H](C)c4cccc(C(F)F)c4F)ncnc3n(C)c2=O)C1 [Example 26-51] as the compound, how does the IC50 read?
A: Its IC50 is 0.445 µM.

Q: With C[C@@H](Nc1ncnc2c1cc(C1=CCS(=O)(=O)CC1)c(=O)n2C)c1cccc(C(F)(F)CN)c1F [Example 42, 4-(4-{[(1R)-1-[3-(2-amino-1,1-difluoroethyl)-2-fluorophenyl]ethyl]amino}-8-methyl-7-oxo-7H,8H-pyrido[2,3-d]pyrimidin-6-yl)-3,6-dihydro-2H-1λ^6-thiopyran-1,1-dione] as the compound, how does the IC50 read?
A: Its IC50 is 0.242 µM.

Q: How did the IC50 turn out when COC1(c2cc3c(N[C@H](C)c4cccc(C(F)F)c4F)ncnc3n(C)c2=O)CN(C(C)=O)C1 [Example 32-7] was run?
A: The IC50 was 0.0714 µM.

Q: With C[C@@H](Nc1ncnc2c1cc(C1(C#N)CN(S(C)(=O)=O)C1)c(=O)n2C)c1cccc(C(F)F)c1F [Example 36-7] as the compound, how does the IC50 read?
A: Its IC50 is 0.772 µM.

Q: How did the IC50 turn out when C[C@@H](Nc1ncnc2c1cc(C1(F)CCP(C)(=O)CC1)c(=O)n2C)c1cccc(C(F)F)c1F (some centres unmarked) [Example 29-9] was run?
A: Its IC50 is 0.163 µM.

Q: How did the IC50 turn out when C[C@@H](Nc1ncnc2c1cc(C1=CCS(=O)(=O)CC1)c(=O)n2C)c1cccc(C(F)(F)C#N)c1 [Example 40, 2-{3-[(1R)-1-{[6-(1,1-dioxo-3,6-dihydro-2H-1λ^6-thiopyran-4-yl)-8-methyl-7-oxo-7H,8H-pyrido[2,3-d]pyrimidin-4-yl]amino}ethyl]phenyl}-2,2-difluoroacetonitrile] was run?
A: The IC50 was 1.37 µM.

Q: For COC1(c2cc3c(N[C@H](C)c4cccc(C(F)F)c4F)ncnc3n(C)c2=O)CCN(C(C)=O)C2(CC2)C1 (some centres unmarked) [Example 32-42], which IC50 is on record?
A: The IC50 was 0.355 µM.

Q: For COC1(c2cc3c(N[C@H](C)c4cccc(C(F)F)c4F)nc(C)nc3n(C)c2=O)CC2(CN(C(C)=O)C2)C1 [Example 32-26], which IC50 is on record?
A: The IC50 was 0.0418 µM.

Q: With COC1(c2cc3c(N[C@H](C)c4cccc(C(F)F)c4F)ncnc3n(C)c2=O)C2CCC1CN(C(C)=O)C2 (some centres unmarked) [Example 32-22] as the compound, how does the IC50 read?
A: The IC50 was 0.18 µM.

Q: For CC(=O)N1CCC(c2cc3c(N[C@H](C)c4cccc(C(F)(F)C5CN(C6CC6)CCO5)c4F)ncnc3n(C)c2=O)CC1 (stereo partly drawn) [Example 55, 6-(1-acetyl-4-piperidyl)-4-[[(1R)-1-[3-[(4-cyclopropylmorpholin-2-yl)-difluoro-methyl]-2-fluoro-phenyl]ethyl]amino]-8-methyl-pyrido[2,3-d]pyrimidin-7-one], which IC50 is on record?
A: Its IC50 is 0.109 µM.

Q: Which IC50 does the source give for C[C@@H](Nc1ncnc2c1cc(C(=O)N1CCOC3(CCOC3)C1)c(=O)n2C)c1cccc(C(F)F)c1F (some centres unmarked) [Example 26-46] here?
A: Its IC50 is 0.322 µM.

Q: Which IC50 does the source give for COC1(c2cc3c(N[C@H](C)c4cccc(C(F)F)c4F)ncnc3n(C)c2=O)CCN(C(C)=O)CC1 [Example 32-1] here?
A: Its IC50 is 0.124 µM.

Q: With C[C@@H](Nc1ncnc2c1cc(C(=O)N1CC3(COC3)C1)c(=O)n2C)c1cccc(C(F)F)c1F [Example 26-4] as the compound, how does the IC50 read?
A: Its IC50 is 0.423 µM.

Q: Which IC50 does the source give for C[C@@H](Nc1ncnc2c1cc(C1=CCN(CC(F)(F)F)CC1)c(=O)n2C)c1cccc(C(F)F)c1F [Example 1-27] here?
A: The IC50 was 0.313 µM.

Q: COC1(c2cc3c(N[C@H](C)c4cccc(C(F)F)c4F)ncnc3n(C)c2=O)CN(C)C1 [Example 32-8] was tested. Which IC50 did it give?
A: Its IC50 is 0.186 µM.

Q: Which IC50 does the source give for COC1(c2cc3c(N[C@H](C)c4cccc(C(F)F)c4F)ncnc3n(C)c2=O)CCN(C(=O)C2CC2)CC1 [Example 32-11] here?
A: The IC50 was 0.0345 µM.

Q: Which IC50 does the source give for COC1(c2cc3c(N[C@H](C)c4cccc(C(F)F)c4F)ncnc3n(C)c2=O)CC(N(C)C(C)=O)C1 (stereo in doubt) [Example 32-40] here?
A: Its IC50 is 0.382 µM.

Q: Which IC50 does the source give for C[C@@H](Nc1ncnc2c1cc(C1(O)CC3(C1)CS(=O)(=O)C3)c(=O)n2C)c1cccc(C(F)F)c1F [Example 28-4] here?
A: The IC50 was 0.0837 µM.

Q: Which IC50 does the source give for CC(=O)N1CCCC(C#N)(c2cc3c(N[C@H](C)c4cccc(C(F)F)c4F)ncnc3n(C)c2=O)CC1 (some centres unmarked) [Example 36-9] here?
A: The IC50 was 0.0869 µM.

Q: With C[C@@H](Nc1ncnc2c1cc(C(=O)N1CCC13CS(=O)(=O)C3)c(=O)n2C)c1cccc(C(F)F)c1F [Example 26-52] as the compound, how does the IC50 read?
A: Its IC50 is 0.152 µM.

Q: How did the IC50 turn out when C[C@@H](Nc1ncnc2c1cc(C1(OC3COC3)CCS(=O)(=O)CC1)c(=O)n2C)c1cccc(C(F)F)c1F [Example 32-57] was run?
A: The IC50 was 0.0839 µM.

Q: Which IC50 does the source give for Cc1nc(N[C@H](C)c2cccc(C(F)(F)CO)c2)c2cc(C3=CCOCC3)c(=O)n(C)c2n1 [Example 3, (R)-4-((1-(3-(1,1-difluoro-2-hydroxyethyl)phenyl)ethyl)amino)-6-(3,6-dihydro-2H-pyran-4-yl)-2,8-dimethylpyrido[2,3-d]pyrimidin-7(8H)-one] here?
A: The IC50 was 0.0794 µM.

Q: For CC(=O)N1CC=C(c2cc3c(N[C@H](C)c4cccc(C(C)(F)F)c4F)ncnc3n(C)c2=O)CC1 [Example 1-20], which IC50 is on record?
A: Its IC50 is 0.0785 µM.

Q: With CO[C@]1(c2cc3c(N[C@H](C)c4cccc(C(F)F)c4F)ncnc3n(C)c2=O)CCN(C(C)=O)C1 [Example 32-19] as the compound, how does the IC50 read?
A: The IC50 was 0.0113 µM.

Same assay, conditions: Homo sapiens, PC-9, 1 h, read-out: SOS1 pERK IC50

Q: Which IC50 does the source give for C[C@@H](Nc1ncnc2c1cc(C1(O)CCN(C)CC1)c(=O)n2C)c1cccc(C(F)F)c1F [Example 28-1] here?
A: The IC50 was 0.187 µM.

Same assay, conditions: PC-9 cells (EGFR Ex19Del), 1 hour incubation, AlphaLISA SureFire Ultra p-ERK1/2; read-out: SOS1 pERK IC50

Q: How did the IC50 turn out when C[C@@H](Nc1ncnc2c1cc(C1(F)CCS(=N)(=O)CC1)c(=O)n2C)c1cccc(C(F)F)c1F (some centres unmarked) [Example 29-15] was run?
A: Its IC50 is 0.0422 µM.

Q: Which IC50 does the source give for C[C@@H](Nc1ncnc2c1cc(C1CCS(=O)(=O)C1)c(=O)n2C)c1cccc(C(F)F)c1F (some centres unmarked) [Example 33-21] here?
A: Its IC50 is 0.0522 µM.

Q: How did the IC50 turn out when COC1(c2cc3c(N[C@H](C)c4cccc(C(F)F)c4F)ncnc3n(C)c2=O)CCS(=O)(=O)C(C)C1 (some centres unmarked) [Example 32-64] was run?
A: The IC50 was 0.154 µM.

Reference: patent US11168102B1, “Bicyclic heteroaryl compounds and uses thereof” (Revolution Medicines, Inc., priority 2019, dated 2021)
